Read-outs that look alike come from different tables or passages of the source.

The microsomal CLint is the capacity of the preparation to metabolise the compound, expressed as a volume cleared per time. What is called viability is a read-out of living cells in per cent, often relative to untreated cells. The term Papp A→B denotes the apparent permeability from the apical to the basolateral side of a cell layer. As a reminder, the Papp B→A is how fast a substance crosses the layer from the basolateral side. The term IC50 denotes the concentration needed to halve the response being measured.

The nature of series [1]: Plasma stability assay, human plasma. The series is classed as in vitro ADME. As to conditions: pooled plasma; human plasma, 5 μM, 37 °C; read-out: Plasma stability % remaining at 6 h, hum. Here is the method: […] The reactions were terminated by adding 4 vol of ice-cold methanol, and the samples were then mixed vigorously, frozen at −20 °C for 1 h, and left overnight at 8 °C. After that, the samples were centrifuged, and the supernatant was analyzed by means of LC–MS/MS Sciex 6500 triple quadrupole (Sciex, Framingham, MA, USA). Zero time points were prepared by adding ice-cold methanol to the compound prior to the addition of the plasma.

Series [2] can be described thus: Microsomal stability, rat liver microsomes. The series is classed as in vitro ADME. As to conditions: pH 7.4; rat liver microsomes. Here is the method:
(§1) . Zero time points were prepared by adding ice-cold methanol to a mixture of the compound with cofactors prior to the addition of microsomes. […]. Intrinsic clearance (CLint) was calculated using the following formula: [drawing 1] where V = incubation volume per milligram of microsomal protein (μL/mg) and t1/2 = microsomal half-life.
On the technique in general: Liver microsomes are vesicles of endoplasmic reticulum, rich in cytochrome P450 enzymes.

Series [3] can be described thus: Cytotoxicity assay (CellTiter-Glo) on normal human dermal fibroblasts. The series is classed as cell-based. As to conditions: normal human dermal fibroblasts (NHDF). The method, then: The cytotoxicity of the compounds was evaluated in nontumor normal human dermal fibroblasts (NHDF) purchased from ATCC (PCS-201-012, Manassas, VA, USA). The cells were negatively tested for the presence of mycoplasma (cat. #: LT07-318 MycoAlert Mycoplasma Detection kit, Lonza). The cells were cultivated in DMEM high glucose 4.5 g/L medium (cat. #: R8758, Merck, Germany). The medium was supplemented with 10% fetal bovine serum (cat. #: F7524, Merck, Germany; inactivated at 56 °C for 30 min) and 1.0% of L-glutamine (cat. #: G7513, Merck, Germany) without antibiotics. Cells were seeded in 384-well format white micro plates (cat. #: 164610, Nunc, Thermo Fisher Scientific, USA) at a concentration of 60,000 cells per mL and left to rest overnight. Next day, 1 and 10 μM concentrations of the tested compounds were added in triplicates. The cells were cultivated at 37 °C and 5% CO2 for 72 h after which a luminescent cell viability assay (CellTiter-Glo 2.0, cat. #: Promega, Madison, USA) was added. The plate was left on a shaker (350 rpm) in the dark for 20 min at RT. Luminescence was measured by a Spark multimode reader from Tecan (Tecan Group Ltd., Switzerland). The signal of the compound-treated cells was related to the value of the untreated control, which was arbitrarily set to 100% viability.
A general note: Cellular ATP, detected with luciferase, serves as a proxy for viable cell number.

Series [4] in a line: Plasma stability assay, rat plasma. The series is classed as in vitro ADME.
The nature of series [5]: Microsomal stability, human liver microsomes. The series is classed as in vitro ADME. As to conditions: pooled liver microsomes, pH 7.4; human liver microsomes 0.5 mg/mL, 10 μM compound; read-out: Microsomal stability CLint, hum. Here is the method: as §1
Series [6] can be described thus: in vitro. The following applies: human, Caco-2; for Papp A→B at 3 h, 5 µM: read-out: Caco-2 permeability Papp A–B. The series is classed as in vitro ADME. Here is the method: A Transwell system consisting of two compartments separated by a monolayer of differentiated Caco-2 cells was employed for the intestinal permeability evaluation. Thanks to the ability of Caco-2 cells to become polarized, bidirectional transport (A–B and B–A) could be measured and the efflux ratio calculated.
The transepithelial bidirectional transport of tested compounds (5 μM, pH 7.4/7.4) across the Caco-2 monolayers was studied using the BD BioCoat HTS Caco-2 assay system (BD Biosciences, Bedford, MA) as described in detail elsewhere.[47] Aliquots were collected from the donor and acceptor compartment at the end of the transport period (3 h), the integrity of monolayers was verified using Lucifer Yellow dye, and the compounds were quantified using LC–MS/MS (Triple Quad 6500+, Sciex). The apparent permeability coefficient (Papp) was calculated from the following equation: Papp = (dQ/dt)/C0 × A, where dQ/dt is the rate of absorption of the drug across the cells, C0 is the donor compartment concentration at time zero, and A is the area of the monolayer. The efflux ratio was expressed as (Papp B–A)/(Papp A–B). Recovery (%) was determined as (total compound mass in donor and receiver compartments at the end of the incubation/initial compound mass in the donor compartment) × 100.
(In general: Caco-2 cells form a polarised layer with tight junctions and transporters.)

Series [7] concerns the target T1, ADRA1A (Homo sapiens, UniProt P35348).
T1 sequence (P35348 1-466): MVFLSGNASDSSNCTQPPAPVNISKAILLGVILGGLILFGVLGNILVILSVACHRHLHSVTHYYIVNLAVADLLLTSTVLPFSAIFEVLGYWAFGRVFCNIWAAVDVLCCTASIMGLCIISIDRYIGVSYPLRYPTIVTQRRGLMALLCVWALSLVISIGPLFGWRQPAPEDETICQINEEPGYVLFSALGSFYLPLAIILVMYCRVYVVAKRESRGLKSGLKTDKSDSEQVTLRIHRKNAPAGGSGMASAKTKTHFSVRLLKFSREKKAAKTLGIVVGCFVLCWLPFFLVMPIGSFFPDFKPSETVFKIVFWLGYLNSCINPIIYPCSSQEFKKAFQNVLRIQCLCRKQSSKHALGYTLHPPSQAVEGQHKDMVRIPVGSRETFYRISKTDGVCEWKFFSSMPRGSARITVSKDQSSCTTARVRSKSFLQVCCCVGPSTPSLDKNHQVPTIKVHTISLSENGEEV
As to conditions: read-out: ADRA1A IC50; antagonist activity, receptor stimulated with EC80 of epinephrine, Chem-1 cells.
Description: All prepared compounds were tested for their antagonistic activity using calcium flux assays on cells overexpressing the ADRA2A or ADRA1A adrenergic receptor as a primary screen (Table 2).
Chem-1 cells overexpressing ADRA2A or 1A adrenergic receptors were purchased from Merck Millipore (cat. #: HTS096RTA and HTS087RTA; Merck, Germany). The cells were cultured according to the manual. […] After 30 min of incubation with the assay buffer at 37 °C and 5% CO2, the cells were incubated at RT in a dark place for another 15 min. […] All compounds were added by an Agilent Bravo Automated Liquid Handling Platform (Agilent Technologies, USA). […] Before each kinetic measurement, the background fluorescence (F0) was measured, and the result was calculated as (Fmax – F0)/F0.

[8] abbreviates: 10 uM, read-out: NHDF viability at 10 uM (supplement csv).
Setting [9] is: 10 μM, untreated control = 100%, read-out: NHDF Viability 10 μM.

On to `N[C@H]1C[C@@H](OC(=O)[C@@H]2[C@H]3C[C@H]4c5[nH]c6ccccc6c5CCN4C[C@@H]3CC[C@@H]2O)C1` [Compound 4o, 17-α-Hydroxyyohimban-16-α-carboxylic Acid cis-3-Aminocyclobutyl Ester], for which the values for the fraction remaining at 6 h, 5 μM in series [1] and in series [4] were 97 ± 5% and 75%, respectively. Besides, the microsomal CLint at 10 µM in series [2] was found to be 3 µL/min/mg; in series [5] it was 2 ± 1 µL/min/mg. The viability at 72 h, 1 µM in series [3] was 84%. Also, the viability at 72 h, 10 µM in series [3] (setting [8]) and in series [3] (setting [9]) was 86% throughout. For the same compound, in series [6], the recovery at 3 h, 5 µM came out at 101%. Further, the Papp A→B at 3 h, 5 µM in series [6] (5 μM, pH 7.4/7.4, 3 h) amounted to 1 ×10⁻⁶ cm/s.

On to `O=C(OC[C@H]1CCN1)[C@@H]1[C@H]2C[C@H]3c4[nH]c5ccccc5c4CCN3C[C@@H]2CC[C@@H]1O` [Compound 4g, 17-α-Hydroxyyohimban-16-α-carboxylic Acid (R)-Azetidin-2-ylmethyl Ester], for which the share remaining at 6 h, 5 μM in series [1] was 118 ± 3%; in series [4], 134 ± 1%. Further, the microsomal CLint at 10 µM in series [2] came to 1 ± 1 µL/min/mg; in series [5] it was 4 ± 1 µL/min/mg. In addition, the viability at 72 h, 1 µM in series [3] is 120%. Besides, the viability at 72 h, 10 µM in series [3] (setting [8]) and in series [3] (setting [9]) was 120% each time.

For `O=C(OC1CCNCC1)[C@@H]1[C@H]2C[C@H]3c4[nH]c5ccccc5c4CCN3C[C@@H]2CC[C@@H]1O` [Compound 4d, 17-α-Hydroxyyohimban-16-α-carboxylic Acid Piperidine-4-yl Ester], the share remaining at 6 h, 5 μM in series [1] was determined as 100 ± 1%; in series [4], 87%. For the same compound, in series [3], the viability at 72 h, 1 µM was determined as 107%. Further, the viability at 72 h, 10 µM in series [3] (setting [8]) and in series [3] (setting [9]) was 104% throughout. This compound showed a recovery at 3 h, 5 µM in series [6] of 101%. For the same compound, the Papp A→B at 3 h, 5 µM in series [6] (5 μM, pH 7.4/7.4, 3 h) amounted to 1 ×10⁻⁶ cm/s. Besides, the Papp B→A at 3 h, 5 µM in series [6] (5 μM, pH 7.4/7.4, 3 h, read-out: Caco-2 permeability Papp B–A) turned out to be 2 ×10⁻⁶ cm/s.

Consider `O=C(OC1CNC1)[C@@H]1[C@H]2C[C@H]3c4[nH]c5ccccc5c4CCN3C[C@@H]2CC[C@@H]1O` [Compound 4m, 17-α-Hydroxyyohimban-16-α-carboxylic Acid Azetidin-3-yl Ester], for which the fraction remaining at 6 h, 5 μM in series [1] stood at 100 ± 3%; in series [4], 70 ± 2%. Also, the viability at 72 h, 1 µM in series [3] was 77%. Moreover, the viability at 72 h, 10 µM in series [3] (setting [8]) and in series [3] (setting [9]) was 77% in each case. Besides, the microsomal CLint at 10 µM in series [5] turned out to be 3 ± 2 µL/min/mg. For the same compound, the recovery at 3 h, 5 µM in series [6] worked out at 101%. Moreover, the Papp A→B at 3 h, 5 µM in series [6] (5 μM, pH 7.4/7.4, 3 h) worked out at 1 ×10⁻⁶ cm/s.

As to `CC(C)CCOC(=O)[C@@H]1[C@H]2C[C@H]3c4[nH]c5ccccc5c4CCN3C[C@@H]2CC[C@@H]1O` [Compound 3c, 17-α-Hydroxyyohimban-16-α-carboxylic Acid (3-Methylbutyl-1-yl) Ester], the viability at 72 h, 1 µM in series [3] came out at 117%. In addition, the viability at 72 h, 10 µM in series [3] (setting [8]) and in series [3] (setting [9]) was 114% in each case. Besides, the IC50 in series [7] was determined as 2650 nM.

`O=C(O[C@@H]1CCNC1)[C@@H]1[C@H]2C[C@H]3c4[nH]c5ccccc5c4CCN3C[C@@H]2CC[C@@H]1O` [Compound 4k, 17-α-Hydroxyyohimban-16-α-carboxylic Acid (R)-Pyrrolidin-3-yl Ester]: the results for the share remaining at 6 h, 5 μM in series [1] and in series [4] were 95 ± 5% and 110 ± 3%, respectively. Also, the microsomal CLint at 10 µM stood at 1 ± 1 µL/min/mg in series [2] and 3 ± 2 µL/min/mg in series [5]. Also, in series [3], the viability at 72 h, 1 µM is 99%. The viability at 72 h, 10 µM in series [3] (setting [8]) and in series [3] (setting [9]) was 91% throughout. The compound further had a recovery at 3 h, 5 µM in series [6] of 101%. In addition, the Papp A→B at 3 h, 5 µM in series [6] (5 μM, pH 7.4/7.4, 3 h) is 1 ×10⁻⁶ cm/s.

`O=C(O[C@H]1CCNC1)[C@@H]1[C@H]2C[C@H]3c4[nH]c5ccccc5c4CCN3C[C@@H]2CC[C@@H]1O` [Compound 4l, 17-α-Hydroxyyohimban-16-α-carboxylic Acid (S)-Pyrrolidin-3-yl Ester]: the values for the amount remaining at 6 h, 5 μM in series [1] and in series [4] were 100% and 80 ± 1%, respectively. The viability at 72 h, 1 µM in series [3] is 100%. The viability at 72 h, 10 µM in series [3] (setting [8]) and in series [3] (setting [9]) was 94% each time. For the same compound, in series [6], the recovery at 3 h, 5 µM is 112%. For the same compound, in series [6] (5 μM, pH 7.4/7.4, 3 h), the Papp A→B at 3 h, 5 µM came to 1 ×10⁻⁶ cm/s.

With `CC(C)(C)OC(=O)[C@@H]1[C@H]2C[C@H]3c4[nH]c5ccccc5c4CCN3C[C@@H]2CC[C@@H]1O` [Compound 3e, 17-α-Hydroxyyohimban-16-α-carboxylic Acid tert-Butyl Ester], in series [3], the viability at 72 h, 1 µM is 123%. Moreover, the viability at 72 h, 10 µM in series [3] (setting [8]) is 117%; in series [3] (setting [9]), 113%. Further, in series [7], the IC50 worked out at 10500 nM.

As for `O=C(OC[C@@H]1CCNC1)[C@@H]1[C@H]2C[C@H]3c4[nH]c5ccccc5c4CCN3C[C@@H]2CC[C@@H]1O` [Compound 4i, 17-α-Hydroxyyohimban-16-α-carboxylic Acid (R)-Pyrrolidin-3-ylmethyl Ester], the amount remaining at 6 h, 5 μM was found to be 88 ± 3% in series [1] and 62 ± 7% in series [4]. Further, the figures for the microsomal CLint at 10 µM in series [2] and in series [5] were 1 ± 1 µL/min/mg and 4 ± 1 µL/min/mg, respectively. For the same compound, the viability at 72 h, 1 µM in series [3] turned out to be 109%. In addition, the viability at 72 h, 10 µM in series [3] (setting [8]) and in series [3] (setting [9]) was 107% in each case.

As for `O=C(OC[C@H]1CCNC1)[C@@H]1[C@H]2C[C@H]3c4[nH]c5ccccc5c4CCN3C[C@@H]2CC[C@@H]1O` [Compound 4j, 17-α-Hydroxyyohimban-16-α-carboxylic Acid (S)-Pyrrolidin-3-ylmethyl Ester], the fraction remaining at 6 h, 5 μM is 92% in series [1] and 76 ± 3% in series [4]. In addition, the results for the microsomal CLint at 10 µM in series [2] and in series [5] were 1 ± 1 µL/min/mg and 2 µL/min/mg, respectively. Moreover, the viability at 72 h, 1 µM in series [3] was 104%. In addition, the viability at 72 h, 10 µM in series [3] (setting [8]) and in series [3] (setting [9]) was 102% throughout.

With `O=C(OC1CCCC1)[C@@H]1[C@H]2C[C@H]3c4[nH]c5ccccc5c4CCN3C[C@@H]2CC[C@@H]1O` [Compound 3d, 17-α-Hydroxyyohimban-16-α-carboxylic Acid Cyclopentyl Ester], in series [3], the viability at 72 h, 1 µM turned out to be 113%. Further, the values for the viability at 72 h, 10 µM in series [3] (setting [8]) and in series [3] (setting [9]) were 113% and 117%, respectively. Moreover, the half-inhibitory concentration (IC50) in series [7] is 2640 nM.

The values above are taken from PMC11215778 (Journal of Medicinal Chemistry, 2024).
